Measurements from ChEMBL document CHEMBL4393659, “Insights into the chemistry and therapeutic potential of furanones: A versatile pharmacophore” (Eur J Med Chem, 2019).
In brackets after ≈: the same amount, converted by molar mass.

Assays:
[1] = tested on: Rattus norvegicus; assay: Antiinflammatory activity in Wistar rat assessed as inhibition of carrageenan-induced edema measured upto 4 hrs; assay type: functional
[2] = tested on: Rattus norvegicus; assay: Antiinflammatory activity in albino rat assessed as inhibition of carrageenan-induced paw edema by measuring mercury displacement at 20 mg/kg , po relative to control; assay type: functional
[3] = tested on: A549; assay: Cytotoxicity against human A549 cells assessed as reduction in cell viability incubated for 48 hrs by SRB method; assay type: functional; details: A549, 48 h, read-out: ED50 (the source's name)
[4] = tested on: NIH3T3; assay: Cytotoxicity against mouse NIH/3T3 cells assessed as reduction in cell viability incubated for 48 hrs by SRB method; assay type: functional; details: NIH3T3, 48 h, read-out: ED50 (the source's name)
[5] = tested on: SK-OV-3; assay: Cytotoxicity against human SKOV3 cells assessed as reduction in cell viability incubated for 48 hrs by SRB method; assay type: functional; details: SK-OV-3, 48 h, read-out: ED50 (the source's name)
[6] = Ulcerogenicity in Wistar rat assessed as gastric lesions by measuring ulcer severity index at 60 mg/kg , po measured after 17 hrs relative to ibuprofen; assay type: toxicity, organism-based; details: in vivo
[7] = Acute toxicity in Swiss albino mouse assessed as reduction in mortality of animal at 200 to 800 mg/kg , ip observed for 8 days; assay type: organism-based; details: in vivo
[8] = tested on: Mus musculus; assay: Anticonvulsant activity in ip dosed mouse assessed as reduction in PTZ-induced seizures pretreated for 30 mins followed by PTZ addition; assay type: functional
[9] = tested on: Escherichia coli; assay: Antibacterial activity against Escherichia coli; assay type: functional
[10] = tested on: Staphylococcus aureus; assay: Antibacterial activity against Staphylococcus aureus; assay type: functional
[11] = tested on: Rattus norvegicus; assay: Antiinflammatory activity in Sprague-Dawley rat assessed as inhibition of carrageenan-induced paw edema at 3 mg/kg , po relative to control; assay type: functional
[12] = species: Rattus norvegicus; assay: Antiarthritic activity in adjuvant-induced Sprague-Dawley rat; assay type: functional
[13] = tested on: Rattus norvegicus; assay: Antiinflammatory activity in Wistar albino rat assessed as inhibition of carrageenan-induced paw edema at 20 mg/kg , po incubated for 30 mins followed by carrageenan addition and measured after 3 hrs by plethysmometry relative to control; assay type: functional
[14] = tested on: Mus musculus; assay: Analgesic activity in Swiss albino mouse assessed as inhibition of acetic acid induced writhing at 20 mg/kg , po incubated for 3 hrs followed by acetic acid administered and observed for 5 to 15 mins relative to control; assay type: functional
[15] = tested on: Mus musculus; assay: Anticonvulsant activity in ip dosed CF-1 mouse assessed as protection against PTZ-induced seizures measured after 30 mins […]; assay type: functional
[16] = biological target: GABA-A receptor; anion channel; assay: Displacement of [35S]TBPS from GABAA (unknown origin) incubated for 90 mins by scintillation counting method; assay type: protein-complex assay, Homo sapiens
[17] = biological target: GABA-A receptor; alpha-1/beta-2/gamma-2 (Homo sapiens) (UniProt P14867+P47870+P18507); assay: Positive allosteric modulation of recombinant GABAA alpha1beta2gamma2 (unknown origin) expressed in Xenopus laevis oocytes assessed as increase GABA-stimulated current amplitude at 200 uM by electrophysiological two-electrode voltage clamp method; assay type: cell-based
[18] = tested on: Candida albicans; assay: Antifungal activity against Candida albicans ATCC 90028 assessed as reduction in fungal cell viability measured after 24 and 48 hrs by spectrophotometry; assay type: functional
[19] = tested on: Rattus norvegicus; assay: Antiinflammatory activity in po dosed Sprague-Dawley rat assessed as inhibition of carrageenan-induced paw edema incubated for one hour followed by carrageenan addition and measured after 3 hrs; assay type: functional
[20] = tested on: Salmonella typhimurium; assay: Inhibition of biofilm formation in Salmonella enterica subsp. enterica serovar Typhimurium 14028S incubated for 48 hrs by crystal violet staining based assay; assay type: functional, organism-based
[21] = tested on: Aspergillus fumigatus; assay: Antifungal activity against Aspergillus fumigatus assessed as reduction in fungal cell viability by broth dilution method; assay type: functional
[22] = tested on: Lichtheimia corymbifera; assay: Antifungal activity against Absidia corymbifera assessed as reduction in fungal cell viability by broth dilution method; assay type: functional
[23] = tested on: Mycobacterium tuberculosis; assay: Antimycobacterial activity against Mycobacterium tuberculosis H37Rv; assay type: functional, organism-based
[24] = tested on: Plasmodium falciparum; assay: Antimalarial activity against Plasmodium falciparum infected in human blood assessed as reduction in cell viability incubated for 72 hrs by Giemsa stain based assay; assay type: functional
[25] = biological target: Prostaglandin G/H synthase 2 (Homo sapiens, UniProt P35354); assay: Inhibition of recombinant human COX2 expressed in baculovirus infected Sf9 cells
Sequence of Prostaglandin G/H synthase 2 (P35354 whole entry): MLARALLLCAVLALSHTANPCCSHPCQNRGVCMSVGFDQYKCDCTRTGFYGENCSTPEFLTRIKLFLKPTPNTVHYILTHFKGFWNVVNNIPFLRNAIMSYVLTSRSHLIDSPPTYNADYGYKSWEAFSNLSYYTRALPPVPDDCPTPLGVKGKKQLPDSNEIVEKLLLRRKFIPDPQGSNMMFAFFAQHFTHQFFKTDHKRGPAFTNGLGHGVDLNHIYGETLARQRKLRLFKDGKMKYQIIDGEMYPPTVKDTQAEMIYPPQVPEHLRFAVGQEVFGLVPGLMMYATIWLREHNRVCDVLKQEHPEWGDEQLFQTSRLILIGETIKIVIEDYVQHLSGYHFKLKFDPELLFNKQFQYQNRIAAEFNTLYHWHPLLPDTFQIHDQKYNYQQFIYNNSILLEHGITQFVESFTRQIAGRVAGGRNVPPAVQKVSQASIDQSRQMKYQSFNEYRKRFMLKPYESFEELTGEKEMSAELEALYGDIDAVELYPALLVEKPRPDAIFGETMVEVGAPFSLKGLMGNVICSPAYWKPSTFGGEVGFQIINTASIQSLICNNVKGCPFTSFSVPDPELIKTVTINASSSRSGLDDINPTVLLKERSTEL

## O=C1OC(c2ccc(-c3ccccc3)cc2)=C/C1=C\c1cc2ccc(Cl)cc2nc1Cl
[1]
  inhibition (INH): 56 - 63%

## COc1cc(/C=C2/C=C(c3ccc(C)cc3)OC2=O)cc(OC)c1OC
[2]
  inhibition in vivo at 20 mg/kg: 45.2%

## COc1cc(/C=C2\C=CC(=O)O2)c(OC)c2c1C(=O)c1ccccc1C2=O
[3]
  EC50: 9.2 to 16.5 µg/mL (≈ 25.4 to 45.5 µM)
[4]
  EC50: 9.2 to 16.5 µg/mL (≈ 25.4 to 45.5 µM)
[5]
  EC50: 9.2 to 16.5 µg/mL (≈ 25.4 to 45.5 µM)

## CC(C)Cc1ccc(C2=C/C(=C\c3ccc(F)cc3)C(=O)O2)cc1
[6]
  UI: 0.1

## COc1cc(C2OC(=O)CC2C(C)=O)cc(OC)c1O (stereo not drawn)
[7]
  LD50 at 192 h: 200 mg/kg

## CCC1(CC)CC(CCNC(=O)c2ccccc2)OC1=O (stereo not drawn)
[8]
  ED50: 89.9 to 285 mg/kg

## O=C1C=C/C(=C\c2cccc([N+](=O)[O-])c2)O1
[3]
  EC50: 5.9 to 21 µg/mL (≈ 27.2 to 96.7 µM)
[4]
  EC50: 5.9 to 21 µg/mL (≈ 27.2 to 96.7 µM)
[5]
  EC50: 5.9 to 21 µg/mL (≈ 27.2 to 96.7 µM)

## C/C(C#N)=C1/OC(c2ccc(C)cc2)=C(Cl)C1=O
[9]
  MIC: 62.5 µg/mL (≈ 241 µM)
[10]
  MIC: 15.6 µg/mL (≈ 60.1 µM)

## CC1(C)OC(c2ccc(S(C)(=O)=O)cc2)=C(c2cccc(C(F)(F)F)c2)C1=O
[11]
  inhibition in vivo at 3 mg/kg: 32%
[12]
  ED50: 0.06 mg/kg/day

## Cc1ccc(-c2cc(C(F)(F)F)nn2-c2ccc(S(N)(=O)=O)cc2)cc1 [CELECOXIB]
[12]
  ED50: 0.2 mg/kg/day

## O=C1OC(c2ccc3ccccc3c2)=C/C1=C\c1ccccc1[N+](=O)[O-]
[13]
  inhibition in vivo at 20 mg/kg: 74.8 to 89.7%
[14]
  inhibition in vivo at 20 mg/kg: 70 to 74%

## O=C1C=C(c2ccc(Cl)cc2)O/C1=N\C12CC3CC(CC(C3)C1)C2
[9]
  MIC: 7.8 µg/mL (≈ 22.8 µM)

## CC(C1CCOC1=O)C(F)(F)F (stereo not drawn)
[15]
  CD50: 30 mg/kg
[16]
  IC50: 142 µM

## CCC1(C)CC(C)(C(F)(F)F)OC1=O (stereo not drawn)
[15]
  CD50: 47 mg/kg
[16]
  IC50: 224 µM

## CCCC1(CCC)C(=O)OCC1NC(=O)OCC (stereo not drawn)
[17]
  Activity: 426%

## Cc1ccc2cc(/C=C3\C=C(c4ccc5ccccc5c4)OC3=O)c(Cl)nc2c1
[1]
  inhibition (INH): 56 - 63%

## O=C1OC(c2ccc(-c3ccccc3)cc2)=C/C1=C\c1cc2ccccc2nc1Cl
[1]
  inhibition (INH): 56 - 63%

## CC(=O)OCC1C=C(c2cccc(Cl)c2)C(=O)O1 (stereo not drawn)
[18]
  MIC: 1 µg/mL (≈ 3.75 µM)

## COc1cc(/C=C2/C=C(c3ccc(C)cc3C)OC2=O)cc(OC)c1OC
[2]
  inhibition in vivo at 20 mg/kg: 48.4%

## Cc1ccc2cc(/C=C3\C=C(c4ccc(-c5ccccc5)cc4)OC3=O)c(Cl)nc2c1
[1]
  inhibition (INH): 56 - 63%

## CC1(C)OC(=O)C(Oc2ccc(Br)cn2)=C1c1ccc(S(C)(=O)=O)cc1
[12]
  ED50: 0.2 mg/kg
[19]
  ED50: 0.86 mg/kg

## CC(=O)OCC1C=C(c2ccc(Cl)c(Cl)c2)C(=O)O1 (stereo not drawn)
[18]
  MIC: 2 µg/mL (≈ 6.64 µM)

## CCC1=C(Br)/C(=C/Br)OC1=O
[20]
  IC50: 50 µM

## CC(=O)OCC1C=C(c2ccc(Br)cc2)C(=O)O1 (stereo not drawn)
[18]
  MIC: 0.5 µg/mL (≈ 1.61 µM)

## O=C1C=CC(=C(Br)Br)O1
[20]
  IC50: 15 µM

## O=C1OCCC1CC(F)(F)F (stereo not drawn)
[15]
  CD50: 30 mg/kg
[16]
  IC50: 105 µM

## CC(=O)N1CCN(c2ccc(OCC3COC(Cn4ccnc4)(c4ccc(Cl)cc4Cl)O3)cc2)CC1 (stereo not drawn) [KETOCONAZOLE]
[21]
  MIC: 16.6 µg/mL (≈ 31.2 µM)
[22]
  MIC: 16.6 µg/mL (≈ 31.2 µM)

## COc1cc(/C=C2\C=C(c3cccc(Br)c3)OC2=O)ccc1OC(C)=O
[23]
  IC50: 5.05 µg/mL (≈ 12.2 µM)
  IC90: 7.85 µg/mL (≈ 18.9 µM)

## COc1cccc2cc(/C=C3/CC(c4ccc(Cl)cc4)OC3=O)c(Cl)nc12 (stereo not drawn)
[24]
  MIC: 0.5 to 0.72 µg/mL (≈ 1.25 to 1.8 µM)

## CS(=O)(=O)c1ccc(C2=C3c4ccccc4CCC3OC2=O)cc1 (stereo not drawn)
[25]
  IC50: 0.5 to 0.6 µM
